As a reminder, the half-life is the time needed for the level to fall by half in the phase considered.

Data set [1] in a line: Toxicity study: blood routine, blood biochemistry and tissue pathology of healthy ICR male mice. In kind it is in vivo. The following applies: 28 days. The procedure:
The influence of the polyaminopolycarboxylic acid modified Abiraterone derivative AA-DTPA prepared in Example 5 on blood routine, blood biochemistry and pathological tissues of ICR healthy male mice following administration for 28 days includes the following steps:
20 ICR mice were selected, and were divided into 4 groups (NS group, positive control group AA 150 mg/kg/d p.o., and experimental groups AA-DTPA 35 mg/kg/w and 52.5 mg/kg/w i.v.), each of which had 5 mice.
The mice were administrated intragastrically once daily, and administrated intravenously, […], and blood was sampled for submission following the treatment for 28 days; all mice were sacrificed by cervical dislocation, hearts, livers, spleens, lungs, kidneys, and testes were dissected and collected, and fixed with 10% formaldehyde; and after being embedded by paraffin, the organs were sectioned, and histopathological examination was performed after HE staining (see FIG. 13 for results from blood routine experiments, FIG. 14 for results from blood biochemistry experiments, and FIG. 15 for results from histopathological experiments).

The subject of data set [2] is human prostate cancer LNCaP derived xenograft tumors. As to the kind of experiment: Inhibition of growth of human prostate cancer LNCaP derived xenograft tumors of nude mice. The following applies: for tumor inhibition effect compared with the AA group: 28 days; for tumor growth: treatment for 28 days. Background: A xenograft is tissue or cells of one species grown in another, often human tumour cells in immunodeficient mice.

The nature of data set [3]: Organ indexes and body weights of prostate cancer LNCaP tumor-bearing mice. It counts as in vivo, nude mice. The note with it: 28 days; for body weights of the mice: vs normal group. Here is the method: A normal group (Normal) was not given any treatment; a model group (NS) received a daily injection of an equal volume of physiological saline; an AA group (150 mg/kg/d p.o.) was administrated intragastrically, once daily; and an AA-DTPA group (35 mg/kg/w i.v.) and an AA-DTPA group (52.5 mg/kg/w i.v.) were administrated from tail veins once weekly.
Diameters of the xenograft tumors of the nude mice were measured with vernier calipers, and the anti-tumor effect of the Abiraterone was dynamically observed.
Two days following the last administration, the mice were sacrificed, and hearts, livers, spleens, lungs, kidneys, and testes were dissected off and weighed, and organ indexes [organ index=organ weight/(body weight−tumor weight), unit: mg/g] were calculated.

The subject of data set [4] is human prostate cancer cells (LNCaP). The note with it: 2.5-160 μM, incubation 48 hours, CCK8; compared with Abiraterone AA. The procedure: (§1) Cell survival rate tested by CCK8 method: after the solution was pipetted from the wells, each well was added with 10 μl of CCK8 reagent and 100 μl of serum-free medium for further culture for 4 hours. An absorbance value of each well at 450 nm was determined using a microplate reader.

The test system of data set [5] is human prostate cancer cells (DU145). The note with it: 2.5-160 μM, incubation 48 hours, CCK8; compared with Abiraterone AA. Here is the method: as §1
A short description of data set [6]: Pharmacokinetic study in rats (plasma, LC-MS/MS). It counts as in vivo, SD rats. Here is the method: Pharmacokinetics experiments of the polyaminopolycarboxylic acid modified abiraterone derivative AA-DTPA prepared in Example 2 in rats includes the following steps:
A total of eight healthy male SD rats weighing 220+/−20 g were randomly divided into 2 groups, with 4 rats in each group; one group was administered with AA-DTPA from tail veins of the rats at a dose of 8 mg/kg in a volume of 0.2 ml/200 g rat; the other group was administrated intragastrically with AA at a dose of 30 mg/kg in a volume of 0.2 ml/200 g rat; blood samples were collected at time points of 5, 15, and 30 minutes, as well as 1, 2, 4, 6, 12, and 24 hours before and after administration for both groups; and at each time point, 0.5 ml of blood was sampled from canthi, and was placed in a heparinized plastic centrifuge tube, centrifugation was performed at 3000 r/min for 10 minutes, and plasma was separated therefrom.
50 μl of rat plasma samples+5 μl of methanol ice (1:1, v/v)+150 μl of precipitant were taken, and fully whirled and shaken for 3 minutes, a mixture was then centrifuged at 4° and 12000 r/min for 10 minutes, and a supernatant was pipetted, and analyzed with sample injection by LC-MS/MS (liquid chromatography-tandem mass spectrometry).

Where [7] appears, read: healthy male ICR mice, 35 and 52.5 mg/kg/w i.v. vs AA 150 mg/kg/d p.o.
The mark [8] stands for this setting: healthy male ICR mice, 35 and 52.5 mg/kg/w i.v.
[9] abbreviates: intravenous injection (tail vein) 8 mg/kg.
The mark [10] stands for this setting: intragastric administration 30 mg/kg.

`CC12CCC(OC(=O)CN(CCN(CCN(CC(=O)O)CC(=O)O)CC(=O)O)CC(=O)O)CC1=CCC1C2CCC2(C)C(c3cccnc3)=CCC12` (stereo not drawn) [AA-DTPA, diethylenetriaminepentaacetic acid modified Abiraterone derivative]: the histopathology of lungs result in data set [1] (52.5 mg/kg/w i.v., HE staining) is on record as “mild pathological changes”. In addition, the “organ toxicity (histopathology)” value in data set [1] (35 and 52.5 mg/kg/w i.v.) is on record as “no obvious organ toxicity”. In addition, the “histopathology of hearts, spleens, kidneys and testes” value in data set [1] (35 and 52.5 mg/kg/w i.v., HE staining) is listed as “no abnormal changes”. Also, in data set [1] (setting [7]), the “effect on alanine aminotransferase and aspartate aminotransferase compared with AA group” value was “less effect”; the “effect on number of lymphocytes and monocytes compared with AA group” value is recorded as “less effect”. For the same molecule, in data set [1] (setting [8]), the “effect on blood biochemistry” value was “less effect” and the “effect on blood routine” value is given as “less effect”. For the same molecule, in data set [1] (healthy male ICR mice), the “toxicity compared with AA” value is recorded as “less toxic than that of the AA”. Also, in data set [2] (35 mg/kg/w i.v. vs AA 150 mg/kg/d p.o.), the “tumor inhibition effect compared with the AA group” value is reported as “better tumor inhibition effects”. Moreover, the tumor growth entry in data set [2] (35 mg/kg/w i.v.) is on record as “significantly inhibited”. The “tumor inhibition effect compared with the AA group” value in data set [2] (52.5 mg/kg/w i.v. vs AA 150 mg/kg/d p.o.) is on record as “better tumor inhibition effects”. Further, the tumor growth result in data set [2] (52.5 mg/kg/w i.v.) is “significantly inhibited”. For the same molecule, the “body weights of the mice” value in data set [3] (35 mg/kg i.v. weekly) was “equivalent to those of the mice in the normal group”. The “body weights of the mice” value in data set [3] (52.5 mg/kg i.v. weekly) is reported as “equivalent to those of the mice in the normal group”. Moreover, in data set [3] (AA-DTPA treatment group (35 and 52.5 mg/kg/w i.v.)), the “indexes of hearts, livers, lungs, kidneys and testes vs model group” value was “No significant difference”. Further, the “organ toxicity compared with AA under the treatment dose” value in data set [3] (LNCaP tumor-bearing mice) is listed as “lower than that of the AA”. Further, the “in vitro anti-tumor effect (LNCaP), cell survival rate” value in data set [4] was “superior to the in vitro anti-tumor effect of Abiraterone AA”. The “in vitro anti-tumor effect (DU145), cell survival rate” value in data set [5] is recorded as “superior to the in vitro anti-tumor effect of Abiraterone AA”. Besides, in data set [6] (setting [9]), the average clearance rate is 8.55 mL/min/kg, the half-life period was found to be 0.26 h and the plasma concentration-time profile entry was “double exponential decay”.

Regarding `CC12CCC(OC(=O)CN(CCN(CCN(CCN(CC(=O)O)CC(=O)O)CC(=O)O)CC(=O)O)CC(=O)O)CC1=CCC1C2CCC2(C)C(c3cccnc3)=CCC12` (stereo not drawn) [AA-TTHA, triethylenetetramine hexaacetic acid modified Abiraterone derivative], the “in vitro anti-tumor effect (LNCaP), cell survival rate” value in data set [4] is listed as “superior to the in vitro anti-tumor effect of Abiraterone AA”. Besides, in data set [5], the “in vitro anti-tumor effect (DU145), cell survival rate” value is reported as “superior to the in vitro anti-tumor effect of Abiraterone AA”.

`C[C@]12CC[C@H](O)CC1=CC[C@@H]1[C@@H]2CC[C@]2(C)C(c3cccnc3)=CC[C@@H]12` [AA, Abiraterone]: in data set [1] (150 mg/kg/d p.o., HE staining), the “histopathology of hearts, spleens, kidneys and testes” value is on record as “no abnormal changes”; the histopathology of livers result was “mild pathological changes”; the histopathology of lungs result is listed as “mild pathological changes”. For the same molecule, in data set [3] (150 mg/kg/d p.o.), the heart indexes result is “slight decline”; the “indexes of livers, lungs and kidneys vs model group” value is reported as “no significant difference”. The testis indexes entry in data set [3] (150 mg/kg/d p.o., compared with normal group and model group) is “testicular atrophy and a sharp decrease in testis indexes”. In addition, in data set [6] (setting [10]), the absorption in vivo result is “absorbed slowly”, the “peak value of AA concentration in blood plasma” value was 15.28 ± 1.24 ng/mL and the “time to peak plasma concentration” value is 0.5 h. The half-life in data set [6] (male, SD, rat, plasma, po, intragastric administration 30 mg/kg, read-out: half-life period (converted)) was 8.46 h.

The values above are taken from US11944685B2, “Preparation method and application of novel injection abiraterone derivative” (TIANJIN HAIRUNJIAHE INNOVATIVE PHARMACEUTICAL RESEARCH …, priority 2021, dated 2024).
